Structures are written as SMILES. Values after ≈ are worked out from the molar mass of the structure shown.

Usually IC50 stands for the concentration needed to halve the response being measured. What is called MIC is the lowest concentration that inhibits growth of the organism. A low value points to a more susceptible organism.

Data set [1] relates to dormantfungi present around infections. The following applies: reported in Mycoses, 46, pp. 505-510, 2003; cited from earlier work.
In data set [2] the test system is mouse T lymphoma cell line EL-4. Nature of the data set: Cytotoxicity to EL-4 cells, cell counting kit. The class given is cell-based. The settings on record: 37° C., 72 hours. The procedure: (§1) Cytotoxicity was evaluated by adding a test drug to mouse T lymphoma cell line EL-4 at various concentrations, incubating the cells in a CO2 incubator at 37° C. for 72 hours, counting the cells using a cell counting kit (Wako Pure Chemical Industries, Ltd.), and calculating IC50 values.
For orientation: Tetrazolium dyes change colour on reduction, which living cells bring about.

The nature of data set [3]: Cytotoxicity to EL-4 cells, cell counting kit. The class given is cell-based, mouse. The settings on record: mouse, EL-4 mouse T lymphoma cells, 37° C. The method, then: as §1
Data set [4] relates to Trichophyton mentagrophytes FP2103. The experiment in a line: Antifungal activity, broth microdilution method. The class given is cell-based. The following applies: minimum inhibitory concentration. The method, then:
(§2) Antifungal activities for the following test fungi were determined by a broth microdilution method (Hikaru Kume and Toshikazu Yamazaki, Clinical Microbiology, Vol. 21, No. 5, pp. 573-580, 1994).
In general terms: Dilution methods test growth across graded concentrations, often in twofold steps.

The test system of data set [5] is Cryptococcus neoformans FP1739. Nature of the data set: Antifungal activity, broth microdilution method. The following applies: minimum inhibitory concentration. The class given is cell-based. The procedure: as §2
Data set [6] has as its system Trichophyton rubrum FP596. Nature of the data set: Antifungal activity, broth microdilution method. In kind it is cell-based. The following applies: minimum inhibitory concentration. The procedure: as §2
In data set [7] the test system is Alternaria alternata AHU9258. The experiment in a line: Antifungal activity, broth microdilution method. The class given is cell-based. The settings on record: minimum inhibitory concentration. The procedure:
as §2

Data set [8] deals with Aspergillus fumigatus FP1305. The experiment in a line: Antifungal activity, broth microdilution method. In kind it is cell-based. The settings on record: minimum inhibitory concentration. The method, then: as §2
Another data set relates to Complex III. Nature of the data set: Complex III inhibitory activity, ubiquinol-cytochrome c reductase assay using isolated mitochondrial fraction. The following applies: mitochondrial fraction of Trichophyton mentagrophytes FP2103; kind of value (IC50 or other) not stated. The class given is biochemical. The procedure:
A medium (0.1% glucose, 0.2% bacto tryptone, 0.2% K2HPO4, 0.005% MgSO4.7H2O and 0.005% CaC12.2H2O) was poured into an Erlenmeyer flask and sterilized by autoclaving. Conidiophores of Trichophyton mentagrophytes FP2103 were inoculated into the medium, and cultured at 30° C. for 40 hours while shaking on a rotary shaker. The fungus was collected from the cultural solution and dipped in a cell wall lysis enzyme solution {1 M KC1, 25 mM CaC12.2H2O, 10 mM MgC12.6H2O, 5 mg/mL zymolyase-100T (Seikagaku Corporation), 1 mg/mL chitinase (Sigma) and 5 mg/mL drieselase (Sigma)}, and the resulting mixture was stirred at 30° C. for 4 hours. The enzyme treatment solution was filtered through glass funnel filled with gauze to obtain protoplast. A mitochondrial fraction was isolated from the protoplast by using a Mitochondria Isolation Kit (BioChain Institute, Inc.). The Complex III inhibitory activity was measured in the ubiquinol-cytochrome c reductase assay using the isolated mitochondrial fraction (The Journal of Biological Chemistry, 279, pp. 8708-8714, 2004). As a result, the compound A inhibited the complex III at 0.9 ng/mL.

Regarding `CN(C/C=C/C#CC(C)(C)C)Cc1cccc2ccccc12` [Terbinafine], the “activity against dormant fungi” value in data set [1] is listed as “weak activity”.
As to `CCC(C)CC(C)CCC1CCCC(c2c(O)c(C3C(O)C(O)C(O)C3O)cn(C)c2=O)O1` (stereo not drawn) [compound A], the “concentrations showing no cytotoxic effect” value in data set [2] is at most 3100 ng/mL. Further, the IC50 at 72 h in [3] was 6.2 µg/mL (≈ 13.3 µM). In addition, the minimum inhibitory concentration (MIC) in data set [4] worked out at 0.1 µg/mL (≈ 0.214 µM); in data set [5] it was 1.3 µg/mL (≈ 2.78 µM); in data set [6] it was 0.1 µg/mL (≈ 0.214 µM); in data set [7], 6.3 µg/mL (≈ 13.5 µM); in data set [8] it was 25 µg/mL (≈ 53.5 µM). Further, in the data set on Complex III, the “concentration at which complex III was inhibited” value worked out at 0.9 ng/mL.

The values above are taken from patent publication US20120059038A1, “[…]” (Astellas Pharma Inc., priority 2009, published 2012).
